The source of these data is patent US10131669B2, “Pyrazolopyrimidine compounds” (Pfizer Inc., priority 2014, dated 2018).

Structures are written as SMILES. pIC50: −log10 of the molar value. Counter-ions that a name gives are not always drawn.

Holding throughout (assay type): biochemical
For one assay, the target named is T1, Human PDE4A3 (Homo sapiens, UniProt P27815).
T1 construct: His6 (N); FLAG (C); made in house; host or cells: insect cells (baculovirus, pFastBac)
Put plainly: PDE4A3 Scintillation Proximity Assay (SPA), inhibition of enzyme activity. Conditions: geometric mean of 2-7 determinations unless otherwise indicated (b: ≥8 determinations; c: single determination), 1 μM cAMP, 30 min at 25° C., read-out: Human PDE4A FL. The text has this:
(§1) Human PDE4A3 coding sequence (amino acids 2 to 825 from the sequence with accession number NP_001104779) was cloned into the baculovirus expression vector pFastBac (Invitrogen) engineered to include an N-terminal His6 affinity tag and a c-terminal FLAG affinity tag to aid in purification. The recombinant Bacmid was isolated and used to transfect insect cells to generate a viral stock. To generate cell paste for purification, insect cells were infected with the virus stock and cells were harvested 72 hours after infection. Insect cell paste was lysed and after centrifugation, the supernatant was batch bound to Ni-NTA agarose (GE Healthcare) and eluted with 250 mM imidazole. This eluate was diluted with FLAG buffer (50 mM Tris HCL pH 7.5, 100 mM NaCl, 5% Glycerol, 1 mM TCEP with protease inhibitors) and batch bound to ant-FLAG M2 agarose (Sigma) overnight at 4° C. The agarose was packed into a column, washed with buffer and eluted with buffer containing elute using 250 ug/ml Flag-peptide. Fractions were analyzed using SDS-PAGE Coomassie blue staining and pooled based on purity. Pooled fractions were chromatographed on a S200 120 ml column (GE Healthcare) in 50 mM Tris HCL pH 7.5, 150 mM NaCl, 10% Glycerol, 2 mM TCEP with protease inhibitors. PDE4A3 fractions were analyzed by SDS-PAGE Coomassie blue staining, pooled based on purity, dialyzed against 50 mM Tris HCL pH 7.5, 100 mM NaCl, 20% Glycerol, 2 mM TCEP, frozen and stored at −80° C.
(§2) The PDE4A3, PDE4B1, PDE4C1 and PDE4D3 assays use the Scintillation Proximity Assay (SPA) technology to measure the inhibition of human recombinant […], PDE4C1, and PDE4D3 enzyme activity by compounds in vitro. The PDE4A1, PDE4B3, PDE4C1, and PDE4D3 assays are run in parallel using identical parameters, except for the concentration of enzyme (80 pM PDE4A3, 40 pM PDE4B3, 40 pM PDE4C1 and 10 pM PDE4D). The assays are performed in a 384-well format with 50 uL assay buffer (50 mM TRIS pH7.5; 1.3 mM MgCl2; 0.01% Brij) containing enough PDE4A3, PDE4B1, PDE4C1, and PDE4D to convert ˜20% of substrate (1 μM cAMP consisting of 20 nM 3H-cAMP+[…] cold cAMP) and a range of inhibitors. Reactions are incubated for 30 min at 25° C. The addition of 20 uL of 8 mg/ml yitrium silicate SPA beads (Perkin Elmer) stops the reaction. The plates are sealed (TopSeal, Perkin Elmer) and the beads are allowed to settle for 8 hrs, after which they are read on the Trilux Microbeta overnight.
For orientation: Scintillation proximity formats need no separation of bound from free tracer.

The target of the next assay is T2, Human PDE4B1 (Homo sapiens, UniProt Q07343, S133E/S654A/S659A/S661A).
T2 construct: His6 (N); thrombin cleavage site (N); made in house; host or cells: insect cells (baculovirus, pFastBac)
T2 sequence (Q07343 122-736 S133E/S654A/S659A/S661A): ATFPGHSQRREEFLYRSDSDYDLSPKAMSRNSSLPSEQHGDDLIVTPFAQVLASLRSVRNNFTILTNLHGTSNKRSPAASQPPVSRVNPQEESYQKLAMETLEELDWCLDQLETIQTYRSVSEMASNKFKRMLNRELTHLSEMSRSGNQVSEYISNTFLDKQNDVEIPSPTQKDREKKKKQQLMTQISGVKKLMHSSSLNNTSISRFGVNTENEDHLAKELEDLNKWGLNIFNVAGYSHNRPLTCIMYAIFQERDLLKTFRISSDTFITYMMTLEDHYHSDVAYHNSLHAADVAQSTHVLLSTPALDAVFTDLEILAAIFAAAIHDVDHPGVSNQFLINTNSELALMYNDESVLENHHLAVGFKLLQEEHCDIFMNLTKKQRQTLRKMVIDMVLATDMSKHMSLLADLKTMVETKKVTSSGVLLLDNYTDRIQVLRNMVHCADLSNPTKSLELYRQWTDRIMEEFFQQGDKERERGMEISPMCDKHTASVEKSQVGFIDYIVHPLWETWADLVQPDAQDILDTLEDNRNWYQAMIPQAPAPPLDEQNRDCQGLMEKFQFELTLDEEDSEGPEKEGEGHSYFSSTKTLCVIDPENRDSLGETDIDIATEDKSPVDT
The experiment in a line: PDE4B1 Scintillation Proximity Assay (SPA), inhibition of enzyme activity. Conditions: geometric mean of 2-7 determinations unless otherwise indicated (b: ≥8 determinations; c: single determination); 1 μM cAMP, 30 min at 25° C.; read-out: Human PDE4B FL; IC50. On the procedure:
The recombinant Bacmid was isolated and used to transfect insect cells to generate a viral stock. To generate cell paste for purification, insect cells were infected with the virus stock and cells were harvested 72 hours after infection as described in Seeger, T. F. et al., Brain Research 985 (2003) 113-126. Insect cell paste was lysed and after centrifugation, the supernatant was chromatographed on Ni-NTA agarose (Qiagen) as described in Seeger, T. F. et al., Brain Research 985 (2003) 113-126. Ni-NTA agarose eluting fractions containing PDE4 were pooled, diluted with Q buffer A (20 mM Tris HCl pH 8, 5% glycerol, 1 mM TCEP) to reduce NaCl to ˜100 mM and loaded on a Source 15Q (GE Healthcare) column. After washing with Q buffer A/10% buffer B to baseline, PDE4D was eluted with a gradient from 10% to 60% of Buffer B (20 mM Tris HCl pH 8, 1 M NaCl, 5% glycerol, 1 mM TCEP). PDE4D fractions were analyzed by SDS-PAGE Coomassie blue staining, pooled based on purity, frozen and stored at −80° C.
as §2

The next assay addresses T3, human PDE4D3 (Homo sapiens, UniProt Q08499).
T3 construct: His6 (C); made in house; host or cells: insect cells (baculovirus, pFastBac)
Put plainly: PDE4D3 Scintillation Proximity Assay (SPA), inhibition of enzyme activity. The conditions noted are these: geometric mean of 2-7 determinations unless otherwise indicated (b: ≥8 determinations; c: single determination); 1 μM cAMP, 30 min at 25° C.; read-out: Human PDE4D FL; IC50. On the procedure: The recombinant Bacmid was isolated and used to transfect insect cells to generate a viral stock. To generate cell paste for purification, insect cells were infected and cells were harvested 72 hours after infection. Insect cell paste was lysed and after centrifugation, the supernatant was chromatographed on Ni-NTA agarose (Qiagen) as described in Seeger, T. F. et al., Brain Research 985 (2003) 113-126. Ni-NTA agarose eluting fractions containing PDE4 were pooled, diluted with Q Buffer A (50 mM Tris HCl pH 8, 4% glycerol, 100 mM NaCl, 1 mM TCEP, Protease inhibitors EDTA-free (Roche)) to reduce NaCl to ˜200 mM, and loaded on a Q Sepharose (GE Healthcare) column. After washing with Q buffer A to baseline, PDE4D was eluted with a gradient from 10% to 60% of Buffer B (50 mM Tris HCl pH 8, 1 M NaCl, 4% glycerol, 1 mM TCEP). PDE4D fractions were analyzed by SDS-PAGE Coomassie blue staining, pooled based on purity, frozen and stored at −80° C.
as §2

Another assay concerns the target T4, Human PDE4C1 (Homo sapiens, UniProt Q08493).
T4 construct: His6 (N); FLAG (C); made in house; host or cells: insect cells (baculovirus, pFastBac)
Put plainly: PDE4C1 Scintillation Proximity Assay (SPA), inhibition of enzyme activity. The conditions noted are these: geometric mean of 2-7 determinations unless otherwise indicated (b: ≥8 determinations; c: single determination), 1 μM cAMP, 30 min at 25° C., read-out: Human PDE4C FL. On the procedure: as §1, with “The” for “Human PDE4A3 coding sequence (amino acids 2 to 825 from the sequence with accession number NP_001104779) was cloned into the baculovirus expression vector pFastBac (Invitrogen) engineered to include an N-terminal His6 affinity tag and a c-terminal FLAG affinity tag to aid in purification. The”, “PDE4C1” for “PDE4A3”
as §2

T4 sequence (Q08493 2-712): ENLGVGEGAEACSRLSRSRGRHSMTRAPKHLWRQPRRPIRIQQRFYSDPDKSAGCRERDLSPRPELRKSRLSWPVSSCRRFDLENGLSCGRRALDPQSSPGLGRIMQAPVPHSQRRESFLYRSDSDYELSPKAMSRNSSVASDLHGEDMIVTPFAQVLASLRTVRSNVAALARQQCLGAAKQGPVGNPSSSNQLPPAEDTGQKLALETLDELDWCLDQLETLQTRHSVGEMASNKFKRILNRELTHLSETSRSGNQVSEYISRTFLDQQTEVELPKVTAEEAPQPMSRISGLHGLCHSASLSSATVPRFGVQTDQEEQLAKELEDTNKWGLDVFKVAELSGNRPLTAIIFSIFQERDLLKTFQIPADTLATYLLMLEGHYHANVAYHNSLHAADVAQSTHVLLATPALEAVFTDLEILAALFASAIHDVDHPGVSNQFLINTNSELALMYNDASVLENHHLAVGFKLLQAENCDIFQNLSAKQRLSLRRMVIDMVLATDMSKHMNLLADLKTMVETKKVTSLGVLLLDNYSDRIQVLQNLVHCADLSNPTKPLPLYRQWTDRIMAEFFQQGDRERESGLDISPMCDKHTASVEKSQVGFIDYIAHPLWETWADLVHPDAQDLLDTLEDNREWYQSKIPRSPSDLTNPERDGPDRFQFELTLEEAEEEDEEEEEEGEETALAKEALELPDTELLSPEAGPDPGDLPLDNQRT
T1 sequence (P27815 2-825 isoform P27815-6): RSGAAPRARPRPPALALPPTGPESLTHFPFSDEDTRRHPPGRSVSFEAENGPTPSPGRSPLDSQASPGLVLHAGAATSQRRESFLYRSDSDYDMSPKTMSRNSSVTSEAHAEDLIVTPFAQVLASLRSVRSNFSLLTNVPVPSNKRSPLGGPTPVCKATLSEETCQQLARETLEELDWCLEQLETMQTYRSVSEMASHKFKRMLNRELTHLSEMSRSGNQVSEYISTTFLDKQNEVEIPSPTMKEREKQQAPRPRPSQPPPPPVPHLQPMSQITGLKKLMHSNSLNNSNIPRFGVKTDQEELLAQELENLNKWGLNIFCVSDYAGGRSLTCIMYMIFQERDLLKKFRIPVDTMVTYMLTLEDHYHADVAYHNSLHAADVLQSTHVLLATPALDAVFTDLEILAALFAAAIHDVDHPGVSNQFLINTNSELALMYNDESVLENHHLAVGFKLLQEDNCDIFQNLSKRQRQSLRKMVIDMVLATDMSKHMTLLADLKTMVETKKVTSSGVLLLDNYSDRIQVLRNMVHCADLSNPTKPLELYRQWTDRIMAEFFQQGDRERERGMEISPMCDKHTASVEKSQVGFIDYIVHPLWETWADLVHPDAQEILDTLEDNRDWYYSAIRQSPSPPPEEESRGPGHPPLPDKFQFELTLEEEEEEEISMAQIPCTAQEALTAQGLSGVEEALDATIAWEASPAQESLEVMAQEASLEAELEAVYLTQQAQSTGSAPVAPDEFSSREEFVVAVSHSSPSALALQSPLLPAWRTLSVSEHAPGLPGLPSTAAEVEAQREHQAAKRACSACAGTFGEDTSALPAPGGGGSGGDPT
T3 sequence (Q08499 186-808): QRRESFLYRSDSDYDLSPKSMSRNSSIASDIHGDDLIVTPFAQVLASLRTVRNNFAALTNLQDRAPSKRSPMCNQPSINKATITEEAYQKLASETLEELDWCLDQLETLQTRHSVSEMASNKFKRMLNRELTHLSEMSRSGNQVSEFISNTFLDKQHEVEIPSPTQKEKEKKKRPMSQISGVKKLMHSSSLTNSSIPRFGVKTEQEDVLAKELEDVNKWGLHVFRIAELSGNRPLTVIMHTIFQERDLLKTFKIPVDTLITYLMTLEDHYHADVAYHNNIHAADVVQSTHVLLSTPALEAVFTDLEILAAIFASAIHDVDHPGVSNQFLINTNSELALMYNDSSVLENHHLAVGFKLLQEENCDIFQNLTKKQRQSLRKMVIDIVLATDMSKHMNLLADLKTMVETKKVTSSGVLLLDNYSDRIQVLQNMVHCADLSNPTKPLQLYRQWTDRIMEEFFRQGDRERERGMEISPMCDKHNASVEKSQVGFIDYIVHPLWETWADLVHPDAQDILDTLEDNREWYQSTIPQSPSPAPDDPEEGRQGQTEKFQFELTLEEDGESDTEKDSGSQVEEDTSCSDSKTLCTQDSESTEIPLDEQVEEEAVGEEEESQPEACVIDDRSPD

On to `Cc1cc(C#N)c(F)cc1-c1c(C(=O)NC2CC2)nn2cccnc12` [Example 23, 3-(4-cyano-5-fluoro-2-methylphenyl)-N-cyclopropylpyrazolo[1,5-a]pyrimidine-2-carboxamide], for which the pIC50 at Human PDE4A3 was 8.07; at Human PDE4B1, 7.59; at human PDE4D3 it was 6.35; at Human PDE4C1 it was 7.40.

With `Cc1cc(Cl)c(F)cc1-c1c(C(=O)NC2CCC2)nn2cccnc12` [Example 24, 3-(4-chloro-5-fluoro-2-methylphenyl)-N-cyclobutylpyrazolo[1,5-a]pyrimidine-2-carboxamide], the pIC50 is 8.07 on Human PDE4A3, 7.45 on Human PDE4B1, 6.22 on human PDE4D3 and 7.36 at Human PDE4C1.

On to `Cc1cc(Cl)c(F)cc1-c1c(C(=O)NC2CC2)nn2cccnc12` [Example 25, 3-(4-chloro-5-fluoro-2-methylphenyl)-N-cyclopropylpyrazolo[1,5-a]pyrimidine-2-carboxamide], for which the pIC50 at Human PDE4A3 was 8.27; at Human PDE4B1, 8.02; at human PDE4D3, 6.55; at Human PDE4C1, 7.76.

Consider `CC(C)NC(=O)c1nn2cccnc2c1-c1ccc(Cl)cc1` [Example 26, 3-(4-chlorophenyl)-N-(propan-2-yl)pyrazolo[1,5-a]pyrimidine-2-carboxamide], for which the pIC50 at Human PDE4A3 was 6.39; at Human PDE4B1, 6.31; on human PDE4D3 it was 5.31; on Human PDE4C1, 6.20.

`O=C(NC12CC(C1)C2)c1nn2cccnc2c1-c1ccc(Cl)cc1` [Example 27, N-(bicyclo[1.1.1]pent-1-yl)-3-(4-chlorophenyl)pyrazolo[1,5-a]pyrimidine-2-carboxamide]: the pIC50 at Human PDE4A3 is 7.25; at Human PDE4B1, 6.91; at human PDE4D3, 5.21; on Human PDE4C1 it was 6.66.

Take `O=C(N[C@@H]1C[C@@H]1F)c1nn2cccnc2c1-c1ccc(Cl)c(F)c1` [Example 28, 3-(4-chloro-3-fluorophenyl)-N-[(1R,2S)-2-fluorocyclopropyl]pyrazolo[1,5-a]pyrimidine-2-carboxamide]: the pIC50 at Human PDE4A3 was 7.84; at Human PDE4B1, 8.43; at human PDE4D3 it was 6.85; on Human PDE4C1, 7.70.

As to `O=C(NC1CC1)c1nn2cccnc2c1-c1cccc(Cl)c1` [Example 31, 3-(3-chlorophenyl)-N-cyclopropylpyrazolo[1,5-a]pyrimidine-2-carboxamide, hydrochloride salt], the pIC50 on Human PDE4A3 was 7.44; at Human PDE4B1 it was 7.29; on human PDE4D3, 5.67; on Human PDE4C1, 6.97.

For the compound `O=C(NC1CC1)c1nn2cccnc2c1-c1cc(F)c(Cl)c(F)c1` [Example 33, 3-(4-chloro-3,5-difluorophenyl)-N-cyclopropylpyrazolo[1,5-a]pyrimidine-2-carboxamide, hydrochloride salt], the pIC50 was 7.03 at Human PDE4A3, 8.48 on Human PDE4B1, 6.39 on human PDE4D3 and 6.77 at Human PDE4C1.

In the case of `CC1CC1NC(=O)c1nn2cccnc2c1-c1ccc(Cl)cc1` (stereo not shown) [Example 34, 3-(4-chlorophenyl)-N-(2-methylcyclopropyl)pyrazolo[1,5-a]pyrimidine-2-carboxamide], the pIC50 was 6.92 on Human PDE4A3, 6.86 on Human PDE4B1, less than 4.91 at human PDE4D3 and 6.35 on Human PDE4C1.

As to `CN(C(=O)c1nn2cccnc2c1-c1ccc(Cl)cc1)C1CC1` [Example 35, 3-(4-chlorophenyl)-N-cyclopropyl-N-methylpyrazolo[1,5-a]pyrimidine-2-carboxamide, hydrochloride salt], the pIC50 is 5.95 at Human PDE4A3, 5.73 on Human PDE4B1, less than 4.52 at human PDE4D3 and 6.15 at Human PDE4C1.

On to `O=C(NC1(C(F)(F)F)CC1)c1nn2cccnc2c1-c1ccc(Cl)cc1` [Example 36, 3-(4-chlorophenyl)-N-[1-(trifluoromethyl)cyclopropyl]pyrazolo[1,5-a]pyrimidine-2-carboxamide, hydrochloride salt], for which the pIC50 on Human PDE4A3 was 7.17; on Human PDE4B1, 6.34; on human PDE4D3, less than 4.60; at Human PDE4C1, 6.34.

Turning to `O=C(NC1CC1(F)F)c1nn2cccnc2c1-c1ccc(Cl)c(F)c1` (stereo not shown) [Example 39, 3-(4-chloro-3-fluorophenyl)-N-(2,2-difluorocyclopropyl)pyrazolo[1,5-a]pyrimidine-2-carboxamide], the pIC50 at Human PDE4A3 is 7.63; at Human PDE4B1 it was 7.89; on human PDE4D3 it was 6.52; at Human PDE4C1 it was 7.18.

With `COc1cc(-c2c(C(=O)NC3CC3)nn3cccnc23)ccn1` [Example 42, N-cyclopropyl-3-(2-methoxypyridin-4-yl)pyrazolo[1,5-a]pyrimidine-2-carboxamide], the pIC50 at Human PDE4A3 was 6.67; at Human PDE4B1, 6.32; on human PDE4D3 it was less than 4.74; at Human PDE4C1, 5.92.
